Measured values published in patent US20120245213A1, “HUMAN TYPE I TASTE RECEPTOR SUBUNIT 3 MODULATORS AND METHODS OF USING SAME” (priority 2009, published 2012).
Like-named read-outs stand apart in the source and are kept apart here. Values belong to the compound of their own block, whether it stands above or below them.

Key:
[1] = target: T1, human T1R2+T1R3 receptor (Homo sapiens, UniProt Q7RTX0); assay: Heterologous calcium mobilization assay, HEK293 cells expressing human sweet receptor; assay type: cell-based; details: for inhibition of the human sweet receptor: at up to 500 μM
T1 construct: expressed in transfected cells; host or cells: HEK293E
T1 sequence (Q7RTX0 21-852): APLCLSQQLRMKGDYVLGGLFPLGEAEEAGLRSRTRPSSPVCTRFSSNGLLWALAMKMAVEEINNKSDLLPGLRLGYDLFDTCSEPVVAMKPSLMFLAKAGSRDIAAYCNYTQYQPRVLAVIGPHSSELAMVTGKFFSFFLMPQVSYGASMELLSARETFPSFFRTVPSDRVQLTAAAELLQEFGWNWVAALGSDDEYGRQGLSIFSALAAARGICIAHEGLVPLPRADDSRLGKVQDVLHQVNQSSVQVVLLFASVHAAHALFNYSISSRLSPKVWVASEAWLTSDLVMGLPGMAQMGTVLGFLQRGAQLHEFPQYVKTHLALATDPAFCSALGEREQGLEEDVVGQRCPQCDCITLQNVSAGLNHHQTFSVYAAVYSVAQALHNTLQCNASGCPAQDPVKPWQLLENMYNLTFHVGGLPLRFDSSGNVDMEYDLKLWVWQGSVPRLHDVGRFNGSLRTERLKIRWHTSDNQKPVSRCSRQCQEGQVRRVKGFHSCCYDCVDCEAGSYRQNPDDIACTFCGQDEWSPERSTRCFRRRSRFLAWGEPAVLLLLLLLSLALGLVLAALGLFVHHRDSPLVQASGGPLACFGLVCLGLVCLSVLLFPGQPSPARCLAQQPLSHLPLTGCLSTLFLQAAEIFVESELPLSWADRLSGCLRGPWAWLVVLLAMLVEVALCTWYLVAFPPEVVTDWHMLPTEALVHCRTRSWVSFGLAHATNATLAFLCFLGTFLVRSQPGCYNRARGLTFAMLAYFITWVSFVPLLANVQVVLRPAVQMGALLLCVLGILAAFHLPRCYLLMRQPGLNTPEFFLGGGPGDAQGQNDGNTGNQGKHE
T1 sequence (Q8TE23 20-839 partner): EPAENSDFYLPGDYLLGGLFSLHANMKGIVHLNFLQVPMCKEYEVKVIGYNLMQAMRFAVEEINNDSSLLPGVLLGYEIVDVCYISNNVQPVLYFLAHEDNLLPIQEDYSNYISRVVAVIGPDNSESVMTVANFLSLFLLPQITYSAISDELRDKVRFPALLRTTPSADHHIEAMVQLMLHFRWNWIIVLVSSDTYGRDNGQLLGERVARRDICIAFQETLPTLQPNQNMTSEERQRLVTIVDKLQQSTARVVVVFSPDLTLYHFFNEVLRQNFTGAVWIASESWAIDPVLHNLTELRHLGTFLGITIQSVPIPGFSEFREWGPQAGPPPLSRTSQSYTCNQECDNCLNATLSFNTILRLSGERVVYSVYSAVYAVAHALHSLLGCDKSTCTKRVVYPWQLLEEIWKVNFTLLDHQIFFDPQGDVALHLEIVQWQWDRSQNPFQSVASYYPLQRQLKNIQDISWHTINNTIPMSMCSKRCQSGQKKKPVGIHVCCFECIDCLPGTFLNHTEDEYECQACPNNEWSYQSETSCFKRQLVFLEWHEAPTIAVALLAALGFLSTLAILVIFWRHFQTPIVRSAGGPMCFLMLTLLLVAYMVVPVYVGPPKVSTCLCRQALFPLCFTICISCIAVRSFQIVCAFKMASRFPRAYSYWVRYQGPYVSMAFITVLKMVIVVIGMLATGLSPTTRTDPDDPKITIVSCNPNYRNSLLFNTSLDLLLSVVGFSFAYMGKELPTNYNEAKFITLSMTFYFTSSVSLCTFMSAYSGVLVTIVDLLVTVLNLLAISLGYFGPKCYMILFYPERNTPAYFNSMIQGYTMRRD
Experimental: T1R2+T1R3 subunits were transfected into HEK cells along with the promiscuous Gq-type protein G16-gust44. Activation of receptors by agonists was followed using the calcium-sensitive fluorescent dye fluo-4-AM in a 96-well format with the fluorescent microplate reader Flexstation II (Molecular Devices). Inhibitors were added concomitantly with the sweetener sucralose at 2.5 mM (saturating concentration). […] Fluorescence signal (F) is expressed in arbitrary units (AU). The down arrow indicates the injection of the sweetener-inhibitors mixture on the cells. […] Peak calcium signal is expressed as ΔF/F in %, normalized to control (sucralose alone). Data are from a representative experiment, means±SD, done in quadruplicate.
HEK293E cells were cultured at 37° C. in Optimem GlutaMAX culture medium (Invitrogen) supplemented with 4% dialyzed fetal bovine serum. Cells were transfected with the DNA constructs using lipofectamine-2000 according to the manufacturer's protocol (Invitrogen). Briefly, cells were seeded onto 96-well poly-D-lysine plates (Corning) at about 12,500 cells/well 18 hours prior to transfection; and co-transfected with plasmid DNAs encoding […] and G 16-gust44 (0.1 μg total DNA/well; 0.2 μl lipofectamine/well). After 24 hours, the transfected cells were washed once with the culture medium and incubated for another 24 hours. The cells were washed with HBSS supplemented with 20 mM Hepes (HBSS-H), loaded with 3 μM Fluo-4AM (Molecular Probe) in HBSS-H buffer, incubated for 1.5 hours at room temperature, and then washed with HBSS-H and maintained in HBSS-H at 25° C. […] Sweeteners were added 30 seconds after the start of the scan at 2× concentration in 50 μl of HBSS-H while monitoring fluorescence for an additional 200 seconds at 2 seconds intervals. Where tested, inhibitors were added along with sweeteners to the cells.
The data were expressed as the mean±S.E. of quadruplicate or sextuplicate of the F/F values, or were normalized as described. The bar graph and curving-fitting routines were carried out using Graph-Pad Prism 3.0 (GraphPad Software, Inc.).
To determine if phenoxy-herbicides and fibrates had inhibitory properties, a cell-based assay with HEK 293 cells expressing the human sweet receptor composed of hT1R3 and hT1R2 was used.
IC50s are means±SD from at least 3 independent experiments.

[2] = test system: sweet and umami (MSG) taste; assay: Psychophysical self-experimentation on taste; assay type: in vivo, human; details: self-experimentation by one of the inventors
From the text: T1R3's role as a critical component of sweet and umami receptors in taste cells is well established (Zhao, supra; and Max, supra). T1R3, like gustducin, has also been implicated in glucose-sensing functions of gut endocrine cells and thereby in glucose homeostasis (Jang, supra).

[3] = HEK 293 cells, hT1R2+hT1R3, 2.5 mM sucralose, read-out: IC50, inhibition of human sweet receptor
[4] = hT1R2+hT1R3 activated by 2.5 mM sucralose, mean (SD), at least 3 independent experiments, read-out: IC50 (μM (SD))

- IC50 [1, 3]: 30 to 100 µM
SMILES: CC(C)(Oc1ccc(CCNC(=O)c2ccc(Cl)cc2)cc1)C(=O)O [Bezafibric acid, 2-[4-(2-{[(4-chlorophenyl)carbonyl]amino}ethyl)phenoxy]-2-methylpropanoic acid, reference compound]

SMILES: CC(Oc1cc(Cl)c(Cl)cc1Cl)C(=O)O (centres unmarked) [2,4,5TPP, 2-(2,4,5-trichlorophenoxy) propanoic acid]
- IC50 [1]: 5 to 12 µM

- inhibition of the human sweet receptor [1]: did not inhibit
SMILES: O=C(O)CCCc1c[nH]c2ccccc12 [IBA, 4-(1H-indol-3-yl)butanoic acid]

SMILES: CC(C)(Oc1ccc(Cl)cc1)C(=O)O [Clofibric acid, 2-(4-chlorophenoxy)-2-methylpropanoic acid]
- inhibition of sweet taste in vivo [2]: potently inhibited
- inhibition of umami (MSG) taste in vivo [2]: potently inhibited

SMILES: Cc1cc(Cl)ccc1OC(C)C(=O)O (centres unmarked) [MCPP, 2-(4-chloro-2-methylphenoxy) propanoic acid]
- IC50 [1]: 5 to 12 µM

- inhibition of the human sweet receptor [1]: did not inhibit
- IC50 [1, 4]: > 1000 µM
SMILES: O=C(O)Cc1c[nH]c2ccccc12 [IAA, 1H-indol-3-ylacetic acid]

- IC50 [1, 3]: ≥ 142 µM
SMILES: O=C(O)Cc1cccc2ccccc12 [NAA, naphthalen-1-ylacetic acid]

- inhibition of the human sweet receptor [1]: did not inhibit
- IC50 [1, 4]: > 1000 µM
SMILES: O=C(O)CCc1c[nH]c2ccccc12 [IPA, 3-(1H-indol-3-yl)propanoic acid]

- IC50 [1, 3]: 30 to 100 µM
SMILES: Cc1ccc(C)c(OCCCC(C)(C)C(=O)O)c1 [Gemfibrozil, 5-(2,5-dimethylphenoxy)-2,2-dimethylpentanoic acid, reference compound]

SMILES: O=C(O)Cc1ccccc1 [PAA, phenylacetic acid]
- IC50 [1]: ≥ 142 µM

SMILES: O=C(O)COc1ccc(Cl)cc1 [4-CPA, (4-chlorophenoxy)acetic acid]
- IC50 [1]: ≥ 142 µM
